Test results reported in article PMC9133015 (Nature Communications, 2022).
Values joined by “and” are separate entries in the source; they are usually repeats but may differ in a detail not shown here. Equal values may be shown once.

Legend:
Test in all cases: Anti-proliferation activity assay (CCK8, 72 h)
Format in all cases: cell-based, human
DU145 cells = settings: for Relative proliferation rate (%) mean / Relative proliferation rate (%) / optical density: DU145; for Relative proliferation rate (%) / optical density: replicates
PC-3 cells = settings: for Relative proliferation rate (%) mean / Relative proliferation rate (%) / optical density: PC-3; for Relative proliferation rate (%) / optical density: replicates
22Rv1 shDYRK2 cells = tested on: 22Rv1 shDYRK2 cells
DU145 shDYRK2 cells = tested on: DU145 shDYRK2 cells
[1] = Homo sapiens, 22Rv1, read-out: inhibitory rate (%) mean
[2] = Homo sapiens, DU-145, read-out: inhibitory rate (%) mean

## CCN1CCN(C(=O)c2ccc(Nc3ncc(F)c(-c4ccc5nc(N(C)C)sc5c4)n3)nc2)CC1 [YK-2-69]
DU145 cells; 0.0049 uM
  Relative proliferation rate (%) mean: 5.845%
  Relative proliferation rate (%): 5.804% and 4.647% and 7.084%
  optical density: 0.99 and 0.985 and 1.01
DU145 cells; 0.078 uM
  Relative proliferation rate (%) mean: 13.2988%
  Relative proliferation rate (%): 13.2255% and 9.1% and 17.5713%
  optical density: 0.912 and 0.939 and 0.896
DU145 cells; 0.3125 uM
  Relative proliferation rate (%) mean: 23.3091%
  Relative proliferation rate (%): 23.3111% and 19.8451% and 26.7709%
  optical density: 0.806 and 0.828 and 0.796
DU145 cells; 1.25 uM
  Relative proliferation rate (%) mean: 41.9044%
  Relative proliferation rate (%): 41.8649% and 39.6902% and 44.1582%
  optical density: 0.611 and 0.623 and 0.607
DU145 cells; 5 uM
  Relative proliferation rate (%) mean: 55.1717%
  Relative proliferation rate (%): 55.1855% and 52.3717% and 57.9577%
  optical density: 0.471 and 0.492 and 0.457
DU145 cells; 20 uM
  Relative proliferation rate (%) mean: 69.2763%
  Relative proliferation rate (%): 69.3625% and 65.0532% and 73.4131%
  optical density: 0.322 and 0.361 and 0.289
DU145 cells; 80 uM
  Relative proliferation rate (%) mean: 80.2708%
  Relative proliferation rate (%): 80.3045% and 75.4114% and 85.0966%
  optical density: 0.207 and 0.254 and 0.162
DU145 cells; DU145 cells
  inhibitory activity against proliferation (in words): potent inhibitory activity
DU145 cells; Homo sapiens, DU-145, read-out: IC50 against proliferation
  IC50: 3.3 µM
PC-3 cells; Homo sapiens, PC-3, read-out: IC50 against proliferation
  IC50: 1.07 µM
PC-3 cells; 0.0049 uM
  Relative proliferation rate (%) mean: 6.648%
  Relative proliferation rate (%): 6.621% and 4.33% and 8.993%
  optical density: 0.945 and 0.95 and 0.931
PC-3 cells; 0.078 uM
  Relative proliferation rate (%) mean: 18.3188%
  Relative proliferation rate (%): 15.5138% and 18.3283% and 21.1144%
  optical density: 0.855 and 0.811 and 0.807
PC-3 cells; 0.3125 uM
  Relative proliferation rate (%) mean: 33.3383%
  Relative proliferation rate (%): 28.6561% and 33.3333% and 38.0254%
  optical density: 0.722 and 0.662 and 0.634
PC-3 cells; 1.25 uM
  Relative proliferation rate (%) mean: 54.3687%
  Relative proliferation rate (%): 47.8261% and 54.3807% and 60.8993%
  optical density: 0.528 and 0.453 and 0.4
PC-3 cells; 5 uM
  Relative proliferation rate (%) mean: 70.2315%
  Relative proliferation rate (%): 66.7984% and 70.1913% and 73.7048%
  optical density: 0.336 and 0.296 and 0.269
PC-3 cells; 20 uM
  Relative proliferation rate (%) mean: 81.0679%
  Relative proliferation rate (%): 78.6561% and 81.0675% and 83.48%
  optical density: 0.216 and 0.188 and 0.169
PC-3 cells; 80 uM
  Relative proliferation rate (%) mean: 88.776%
  Relative proliferation rate (%): 88.7352% and 82.578% and 95.0147%
  optical density: 0.114 and 0.173 and 0.051
PC-3 cells; PC-3 cells
  inhibitory activity against proliferation (in words): potent inhibitory activity
22Rv1 shDYRK2 cells; 22Rv1 shDYRK2 cells, even at 80 μM
  inhibitory activity on proliferation (in words): almost no inhibitory activity
22Rv1 shDYRK2 cells; [1]
  inhibition at 10 µM: 19.7%
  inhibition at 2.5 µM: 17.3%
  inhibition at 20 µM: 26.3%
22Rv1 shDYRK2 cells; Homo sapiens, 22Rv1 KD, inhibitor 0.625 uM, read-out: inhibitory rate (%) mean
  inhibition at 0.625 µM: 9.79%
22Rv1 shDYRK2 cells; Homo sapiens, 22Rv1 KD, inhibitor 1.25 uM, read-out: inhibitory rate (%) mean
  inhibition at 1.25 µM: 14.3%
22Rv1 shDYRK2 cells; Homo sapiens, 22Rv1 KD, inhibitor 5 uM, read-out: inhibitory rate (%) mean
  inhibition at 5 µM: 19.2%
22Rv1 shDYRK2 cells; Homo sapiens, 22Rv1 KD, inhibitor 40 uM, read-out: inhibitory rate (%) mean
  inhibition at 40 µM: 31.8%
22Rv1 shDYRK2 cells; Homo sapiens, 22Rv1 KD, inhibitor 80 uM, read-out: inhibitory rate (%) mean
  inhibition at 80 µM: 43.8%
22Rv1 shDYRK2 cells; Homo sapiens, 22Rv1 shDYRK2 cells, read-out: IC50 antiproliferative activity
  IC50: > 80 µM
DU145 shDYRK2 cells; DU145 shDYRK2 cells, even at 80 μM
  inhibitory activity on proliferation (in words): almost no inhibitory activity
DU145 shDYRK2 cells; Homo sapiens, DU-145, DU145 KD, inhibitor 0.625 uM, read-out: inhibitory rate (%) mean
  inhibition at 0.625 µM: 7.98%
DU145 shDYRK2 cells; Homo sapiens, DU-145, DU145 KD, inhibitor 1.25 uM, read-out: inhibitory rate (%) mean
  inhibition at 1.25 µM: 10.3%
DU145 shDYRK2 cells; Homo sapiens, DU-145, DU145 KD, inhibitor 5 uM, read-out: inhibitory rate (%) mean
  inhibition at 5 µM: 13.5%
DU145 shDYRK2 cells; Homo sapiens, DU-145, DU145 KD, inhibitor 10 uM, read-out: inhibitory rate (%) mean
  inhibition at 10 µM: 15.4%
DU145 shDYRK2 cells; Homo sapiens, DU-145, DU145 KD, inhibitor 40 uM, read-out: inhibitory rate (%) mean
  inhibition at 40 µM: 17.2%
DU145 shDYRK2 cells; Homo sapiens, DU-145, DU145 KD, inhibitor 80 uM, read-out: inhibitory rate (%) mean
  inhibition at 80 µM: 18.1%
DU145 shDYRK2 cells; Homo sapiens, DU-145, DU145 shDYRK2 cells, read-out: IC50 antiproliferative activity
  IC50: > 80 µM
DU145 shDYRK2 cells; [2]
  inhibition at 2.5 µM: 11.8%
  inhibition at 20 µM: 16%
